Columns and labels:
Assay type in all cases: cell-based
[1] = target: T1, MRGPRX2 (Homo sapiens, UniProt Q96LB1); test: MRGPRX2 β-Arrestin assay; set-up: host or cells: PathHunter CHO-K1; settings: PathHunter CHO-K1 MRGPRX2 β-Arrestin cell line; agonist Cortistatin 14 0.25 μM
T1 sequence (Q96LB1 1-330): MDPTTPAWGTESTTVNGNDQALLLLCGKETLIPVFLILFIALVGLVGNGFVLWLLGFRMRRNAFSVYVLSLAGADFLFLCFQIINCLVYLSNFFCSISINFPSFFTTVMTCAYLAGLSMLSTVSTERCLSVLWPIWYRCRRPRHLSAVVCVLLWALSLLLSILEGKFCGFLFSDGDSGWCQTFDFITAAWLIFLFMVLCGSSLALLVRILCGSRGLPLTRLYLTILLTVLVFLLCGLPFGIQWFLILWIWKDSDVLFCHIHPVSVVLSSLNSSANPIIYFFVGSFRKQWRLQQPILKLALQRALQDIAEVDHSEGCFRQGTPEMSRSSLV
Source text: Example C: MRGPRX2 β-Arrestin Assay
This assay measures compound inhibition of β-Arrestin recruitment, which is part of the G protein-independent pathway that results from the ligand-activated GPCR phosphorylation by specific GPCR kinases. The PathHunter CHO-K1 MRPGRX2 B-Arrestin Cell line stably expressing ProLink tagged MRGPRX2 and Enzyme Acceptor Tagged B-Arrestin was purchased from Eurofins DiscoverX, (Fremont, CA).
The cells were maintained in culture medium from the Europhins DiscoverX Cell Culture Kit-107 which includes FBS, hygromycin B and G418. For the assay, the cells were harvested and were resuspended with Cell Plating Reagent 2 (Eurofins DiscoverX). Cells were added 10000 cells in 25 µL/well to a 384-well black cell culture plate (Greiner VWR, Radnor, PA) which contained 125 nL/well of compound at a selected serially diluted concentration range or DMSO. The plate was incubated at 37° C. with 5% CO2 for 1 h. 2 μL/well of agonist Cortistatin 14 was diluted in Protein Dilution Buffer, (Eurofins DiscoverX) for a final concentration of 0.25 μM, was added and the plate was incubated at 37° C. with 5% CO2 for 90 min. 14 μL/well of Detection Reagent Mix (PathHunter Detection Kit, Eurofins DiscoverX) was added to the plates and further incubated for 1 h in the dark. Plates were read on the PHERAstar microplate reader (BMG Labtech Cary, NC) measuring luminescence 0.1 to 1 second per well. Data was normalized using DMSO only wells and wells with high concentration of reference antagonist as controls. Compound IC50 curves were globally fitted with 3- or 4-parameter Hill equation in a Genedata Screener (Genedata Basel, Switzerland).

[2] = target: T1, MRGPRX2; test: MRGPRX2 FLIPR calcium mobilization assay; set-up: host or cells: CHO-K1; settings: CHO-K1 cells stably expressing human MRGPRX2; Ca2+ release, agonist Cortistatin-14 at EC80
How it was run: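 CHO-K1 cells stably expressing human MRGPRX2, loaded with Calcium 6 dye, pre-incubated 30 min at room temperature with test compound in HBSS/20 mM HEPES pH 7.4. Then challenged with Cortistatin-14 at EC80; baseline-adjusted peak fluorescence over 110 s fitted to a Hill equation for IC50.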

[3] = target: T1, MRGPRX2; test: MRGPRX2 IP1 HTRF assay; set-up: host or cells: CHO-K1; settings: CHO-K1 cells stably expressing human MRGPRX2; IP1 accumulation, agonist Cortistatin 14 1 μM

IC50 [1] [nM] | IC50 [2] [nM] | IC50 [3] [nM] | Structure (SMILES)
0.1 to 100 | 0.1 to 100 | 0.1 to 100 | Cc1ccc2nc(C(F)(F)F)cc(NCC3(c4ccc(F)cc4)CN(S(N)(=O)=O)C3)c2c1 [Example 2, 3-(4-Fluorophenyl)-3-(((6-methyl-2-(trifluoromethyl)quinolin-4-yl)amino)methyl)azetidine-1-sulfonamide]
0.1 to 100 | 0.1 to 100 | 0.1 to 100 | NS(=O)(=O)N1CC(CNc2cc(C(F)(F)F)nc3ccc(Br)cc23)(c2ccc(F)cc2)C1 [Example 3, 3-(((6-Bromo-2-(trifluoromethyl)quinolin-4-yl)amino)methyl)-3-(4-fluorophenyl)azetidine-1-sulfonamide]
0.1 to 100 | 0.1 to 100 | 0.1 to 100 | NS(=O)(=O)N1CC(CNc2cc(C(F)(F)C(F)(F)F)nc3ccc(Cl)cc23)(c2ccc(F)cc2)C1 [Example 4, 3-(((6-Chloro-2-(perfluoroethyl)quinolin-4-yl)amino)methyl)-3-(4-fluorophenyl)azetidine-1-sulfonamide]
0.1 to 100 | 0.1 to 100 | 0.1 to 100 | NS(=O)(=O)N1CC(CNc2cc(C(F)F)nc3ccc(Cl)cc23)(c2ccc(F)cc2)C1 [Example 5, 3-(((6-Chloro-2-(difluoromethyl)quinolin-4-yl)amino)methyl)-3-(4-fluorophenyl)azetidine-1-sulfonamide]
0.1 to 100 | 0.1 to 100 | 0.1 to 100 | NC(=O)N1CC(CNc2cc(C(F)(F)F)nc3ccc(Br)cc23)(c2ccc(F)cn2)C1 [Example 6, 3-(((6-Bromo-2-(trifluoromethyl)quinolin-4-yl)amino)methyl)-3-(5-fluoropyridin-2-yl)azetidine-1-carboxamide]
0.1 to 100 | 0.1 to 100 | 0.1 to 100 | N#CN=C(N)N1CC(CNc2cc(C(F)(F)F)nc3ccc(Cl)cc23)(c2ccc(F)cc2)C1 [Example 7, 3-(((6-Chloro-2-(trifluoromethyl)quinolin-4-yl)amino)methyl)-N′-cyano-3-(4-fluorophenyl)azetidine-1-carboximidamide]
0.1 to 100 | 0.1 to 100 | 0.1 to 100 | O=C1CC(CNc2cc(C(F)(F)F)nc3ccc(Cl)cc23)(c2ccccc2)CN1 (stereo not drawn) [Example 8, 4-(((6-Chloro-2-(trifluoromethyl)quinolin-4-yl)amino)methyl)-4-phenylpyrrolidin-2-one]
0.1 to 100 | 0.1 to 100 | 0.1 to 100 | N#CN=C(N)N1CCC(CNc2cc(C(F)(F)F)nc3ccc(Cl)cc23)(c2ccccc2)CC1 [Example 9, 4-(((6-Chloro-2-(trifluoromethyl)quinolin-4-yl)amino)methyl)-N′-cyano-4-phenylpiperidine-1-carboximidamide]
0.1 to 100 | 0.1 to 100 | 0.1 to 100 | NS(=O)(=O)N1CC(CNc2cc(C(F)(F)F)nc3ccc(F)cc23)(n2cc(F)cn2)C1 [Example 10, 3-(4-Fluoro-1H-pyrazol-1-yl)-3-(((6-fluoro-2-(trifluoromethyl)quinolin-4-yl)amino)methyl)azetidine-1-sulfonamide]
0.1 to 100 | 0.1 to 100 | 0.1 to 100 | NS(=O)(=O)N1CCC(CNc2cc(C(F)(F)F)nc3ccc(F)cc23)(c2ccccc2)CC1 [Example 11, 4-(((6-Fluoro-2-(trifluoromethyl)quinolin-4-yl)amino)methyl)-4-phenylpiperidine-1-sulfonamide]
0.1 to 100 | 0.1 to 100 | 0.1 to 100 | NS(=O)(=O)N1CCC(CNc2cc(C(F)(F)F)nc3ccc(Cl)cc23)(c2ccccc2)CC1 [Example 12, 4-(((6-Chloro-2-(trifluoromethyl)quinolin-4-yl)amino)methyl)-4-phenylpiperidine-1-sulfonamide]
0.1 to 100 | 0.1 to 100 | 0.1 to 100 | CNC(=O)N1CCC(CNc2cc(C(F)(F)F)nc3ccc(Cl)cc23)(c2ccccc2)C1 (stereo not drawn) [Example 14, 3-(((6-Chloro-2-(trifluoromethyl)quinolin-4-yl)amino)methyl)-N-methyl-3-phenylpyrrolidine-1-carboxamide]
0.1 to 100 | 0.1 to 100 | 0.1 to 100 | FC(F)(F)c1cc(NCC2(c3ccccc3)CCOC2)c2cc(Cl)ccc2n1 (stereo not drawn) [Example 16, 6-Chloro-N-((3-phenyltetrahydrofuran-3-yl)methyl)-2-(trifluoromethyl)quinolin-4-amine]
0.1 to 100 | 0.1 to 100 | 0.1 to 100 | FC(F)(F)c1cc(NCC2(c3ccccc3)CCOCC2)c2cc(Cl)ccc2n1 [Example 17, 6-Chloro-N-((4-phenyltetrahydro-2H-pyran-4-yl)methyl)-2-(trifluoromethyl)quinolin-4-amine]
0.1 to 100 | 0.1 to 100 | 0.1 to 100 | NS(=O)(=O)N1CC(CNc2cc(C(F)(F)F)nc3ccc(Cl)cc23)(n2ccc(F)n2)C1 [Example 18, 3-(((6-Chloro-2-(trifluoromethyl)quinolin-4-yl)amino)methyl)-3-(3-fluoro-1H-pyrazol-1-yl)azetidine-1-sulfonamide]
0.1 to 100 | 0.1 to 100 | 0.1 to 100 | O=C(NC1CC(F)(F)C1)N1CC(CNc2cc(C(F)(F)F)nc3ccc(Cl)cc23)(c2ccc(F)cn2)C1 [Example 19, 3-(((6-Chloro-2-(trifluoromethyl)quinolin-4-yl)amino)methyl)-N-(3,3-difluorocyclobutyl)-3-(5-fluoropyridin-2-yl)azetidine-1-carboxamide]
0.1 to 100 | 0.1 to 100 | 0.1 to 100 | NC(=O)N1CCC(CNc2cc(C(F)(F)F)nc3ccc(Cl)cc23)(c2ccc(F)cn2)C1 (stereo not drawn) [Example 20, 3-(((6-Chloro-2-(trifluoromethyl)quinolin-4-yl)amino)methyl)-3-(5-fluoropyridin-2-yl) pyrrolidine-1-carboxamide]
0.1 to 100 | 0.1 to 100 | 0.1 to 100 | CC(C)NC(=O)N1CC(CNc2cc(C(F)(F)F)nc3ccc(Cl)cc23)(n2cc(F)cn2)C1 [Example 21, 3-(((6-Chloro-2-(trifluoromethyl)quinolin-4-yl)amino)methyl)-3-(4-fluoro-1H-pyrazol-1-yl)-N-isopropylazetidine-1-carboxamide]
0.1 to 100 | 0.1 to 100 | 0.1 to 100 | O=C(NC1CC(F)(F)C1)N1CC(CNc2cc(C(F)(F)F)nc3ccc(Cl)cc23)(n2cc(F)cn2)C1 [Example 22, 3-(((6-Chloro-2-(trifluoromethyl)quinolin-4-yl)amino)methyl)-N-(3,3-difluorocyclobutyl)-3-(4-fluoro-1H-pyrazol-1-yl)azetidine-1-carboxamide]
0.1 to 100 | 0.1 to 100 | 0.1 to 100 | NS(=O)(=O)N1CC(CNc2cc(C(F)(F)F)nc3ccc(F)cc23)(c2ccc(F)cc2)C1 [Example 23, 3-(((6-Fluoro-2-(trifluoromethyl)quinolin-4-yl)amino)methyl)-3-(4-fluorophenyl)azetidine-1-sulfonamide]
0.1 to 100 | 0.1 to 100 | 0.1 to 100 | NS(=O)(=O)N1CC(CNc2cc(C(F)(F)F)nc3ccc(Cl)cc23)(n2cc(F)cn2)C1 [Example 24, 3-(((6-Chloro-2-(trifluoromethyl)quinolin-4-yl)amino)methyl)-3-(4-fluoro-1H-pyrazol-1-yl)azetidine-1-sulfonamide]
